Here are results for eight compounds from patent EP0609289B1, “IMIDAZOLE DERIVATIVES AND PHARMACEUTICAL COMPOSITIONS CONTAINING THE SAME” (THE UPJOHN COMPANY, priority 1991, dated 1993).

One test deals with Angiotensin II receptor. Put plainly: In vitro angiotensin II mesenteric artery receptor binding assay (test 1). As to conditions: rat mesenteric artery membrane fraction, 0.2 nM 125I-Ang II, 22°C, 90 minutes. The method, boiled down: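 Rat mesenteric artery membranes ([…] protein equivalent) incubated with 0.2 nM ^125I-Ang II and compound, 90 min at 22°C, pH 7.2 Tris buffer. Bound radioactivity counted after filtration; nonspecific binding defined with 1 µM unlabeled angiotensin II.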

Test [1] concerns blood pressure increase by angiotensin II. Briefly: Antagonism to blood pressure increase by angiotensin II in a spine destroyed (pithed) rat (test 4). The format is in vivo, Wistar rat. As to conditions: intravenous administration, 3µg/kg angiotensin II, read-out: Inhibition of blood pressure increase by angiotensin II in pithed rat ED50(mg/kg) (test 4). The source says:
4) Antagonism to blood pressure increasing by angiotensin II in a spine destroyed rat
Wistar rat anaesthetized with pentobarbital was fixed at dorsal position, and a cannula for measuring blood pressure was inserted into sinister arteria carotis communis, and a cannula for administration of the test compound into dexter external jugular vein and a cannula for administration of angiotensin II into sinister external jugular vein, ambilateral nervus vagus was cut, and artificial respiration was carried out. A thin bar made of metal was stabbed into spinal column through sinister orbita to destroy spine. Blood pressure was recorded on polygraph via pressure transducer from an arterial cannula. After blood pressure was stable for more than 30 min., 3µg/kg of angiotensin II was administered intravenously four times every 15 min, and every 5 min. before the administration of angiotensin II from the second administration onward, a solvent, a lower dose of the test compound, and a higher dose of the test compound were administered intravenously in this order to observe the blood pressure increasing response by angiotensin II. ED50 values were calculated from the inhibiting rate when the first blood pressure increase by angiotensin II was regarded as 100 %.

Test [2] relates to angiotensin II constriction in an isolated rabbit thoracic aorta. Briefly: Antagonism to angiotensin II constriction in an isolated rabbit thoracic aorta (test 3). As to conditions: test compound 10^-6 M for 20 minutes. Here is the method:
3) Antagonism to angiotensin II constriction in an isolated rabbit thoracic aorta
A rectangular strip-like sample of thoracic aorta isolated from an anaesthetized rabbit was prepared, and the sample was suspended at 2.0 g of loaded tension in a Magnus tube filled with Krebs-Henseleitoid nutrition solution which was well aerated with 95% O2-5% CO2, and the constriction tension was measured using an isometric transducer. After the tension of the sample at rest became stable, accumulative administration of angiotensin II was carried out to obtain a concentration-action curve. Thereafter, the sample was washed with the same nutrition solution, then treated with test compound (10^-6 M) for 20 minutes to obtain again a concentration-action curve of angiotensin II. The results were obtained as followed: generated maximum tension at the first accumulative administration of angiotensin II was regarded as 100 %, and the 50 % effective concentration (ED50) was obtained in the presence or absence of the test compound, and pA2 value was calculated according to the following equations: • pA2=-logKB KB=C/{(A'/A)-1} • C; concentration of the test compound (M) • A'; ED50 in the presence of test compound (M) • A; ED50 in the absence of the test compound (M)

With `CCCc1nc2c(=O)n3n(c(=O)c2n1Cc1ccc(-c2ccccc2-c2nnn[nH]2)cc1)C(C)CCC3C(=O)NC(C)(C)C` (stereo not drawn) [Compound No. 207, 4,9-dioxo-8-methyl-2-n-propyl-5,6,7,8-tetrahydro-1-[{2'-(1H-tetrazol-5-yl)biphenyl-4-yl}methyl]-1H-1,3,4a,8a-tetraza-cyclopentanaphthalene-5-carboxy-N-t-butylamide], at Angiotensin II receptor, the concentration for half-maximal inhibition (IC50) (commonly the concentration needed to halve the response being measured) was determined as 3.9 nM. Further, in test [1], the ED50 stood at 0.033 mg/kg. In test [2], the “Inhibition of rabbit aorta constriction pA2 (test 3)” value (from here on “Inhibition”) was determined as 10.1.

For the compound `CCCCc1nc2c(=O)n3n(c(=O)c2n1Cc1ccc(-c2ccccc2-c2nn[nH]n2)cc1)C1CCC3CC1` [Compound No. 109, 2-n-butyl-5,8-ethano-5,6,7,8-tetrahydro-1-[(2'-(1H-tetrazol-5-yl)biphenyl-4-yl)methyl]-1H-1,3,4a,8a-tetraza-cyclopentanaphthalene-4,9-dione], the IC50 at Angiotensin II receptor is 2.8 nM. Further, the ED50 in test [1] turned out to be 0.21 mg/kg. Further, the “Inhibition” value in test [2] is recorded as 9.49.

Take `CCCc1nc2c(=O)n3n(c(=O)c2n1Cc1ccc(-c2ccccc2-c2nn[nH]n2)cc1)C1CCC3(C(=O)NC(C)(C)C)CC1` [Compound No. 235, 4,9-dioxo-5,8-ethano-2-n-propyl-5,6,7,8-tetrahydro-1-[{2'-(1H-tetrazol-5-yI)biphenyl-4-yl}methyl]-1H-1,3,4a,8a-tetraza-cyclopentanaphthalene-5-carboxy-N-t-butylamide]: the IC50 on Angiotensin II receptor was determined as 21 nM. The ED50 in test [1] was determined as 0.07 mg/kg. Also, in test [2], the “Inhibition” value amounted to 9.62.

With `CCCc1nc2c(=O)n3n(c(=O)c2n1Cc1ccc(-c2ccccc2-c2nn[nH]n2)cc1)C1C=CC3CC1` (stereo not drawn) [Compound No. 105, 5,8-dihydro-5,8-ethano-2-n-propyl-1-[(2'-(1H-tetrazol-5-yl)biphenyl-4-yl)methyl]-1H-1,3,4a,8a-tetraza-cyclopentanaphthalene-4,9-dione], the IC50 on Angiotensin II receptor turned out to be 1.5 nM. For the same compound, the ED50 in test [1] stood at 0.1 mg/kg. Also, in test [2], the “Inhibition” value was 9.42.

Compound `CCCCc1nc2c(=O)n3n(c(=O)c2n1Cc1ccc(-c2ccccc2-c2nnn[nH]2)cc1)C1CCC3(CO)CC1` [Compound No. 220, 2-n-butyl-5,8-ethano-5-hydroxymethyl-5,6,7,8-tetrahydro-1-[{2'-(1H-tetrazol-5-yl)biphenyl-4-yl}methyl]-1H-1,3,4a,8a-tetraza-cyclopentanaphthalene-4,9-dione] returned an IC50 on Angiotensin II receptor of 2.6 nM. Also, the ED50 in test [1] was 0.27 mg/kg. Moreover, the “Inhibition” value in test [2] is recorded as 9.93.

On Angiotensin II receptor, `CCCc1nc2c(=O)n3n(c(=O)c2n1Cc1ccc(-c2ccccc2-c2nn[nH]n2)cc1)C1CCC3CC1` [Compound No. 108, 5,8-ethano-2-n-propyl-5,6,7,8-tetrahydro-1-[(2'-(1H-tetrazol-5-yl)biphenyl-4-yl)methyl]-1H-1,3,4a,8a-tetraza-cyclopentanaphthalene-4,9-dione] returned an IC50 of 1.9 nM. The ED50 in test [1] stood at 0.069 mg/kg. Also, the “Inhibition” value in test [2] is 9.53.

At Angiotensin II receptor, `CCCCc1nc2c(=O)n3n(c(=O)c2n1Cc1ccc(-c2ccccc2-c2nn[nH]n2)cc1)CC(C)C(C)C3` (stereo not drawn) [Compound No. 51, 2-n-butyl-6,7-dimethyl-5,6,7,8-tetrahydro-1-[(2'-(1H-tetrazol-5-yl)biphenyl-4-yl)methyl]-1H-1,3,4a,8a-tetraza-cyclopentanaphthalene-4,9-dione] registered an IC50 of 4.6 nM. Besides, the ED50 in test [1] is 0.65 mg/kg. Further, in test [2], the “Inhibition” value is listed as 9.04.

In the case of `CCCc1nc2c(=O)n3n(c(=O)c2n1Cc1ccc(-c2ccccc2-c2nn[nH]n2)cc1)C(C)CCC3C(=O)O` (stereo not drawn) [Compound No. 111, 4,9-dioxo-8-methyl-2-n-propyl-5,6,7,8-tetrahydro-1-[(2'-(1H-tetrazol-5-yl)biphenyl-4-yl)methyl]-1H-1,3,4a,8a-tetraza-cyclopentanaphthalene-5-carboxylic acid], at Angiotensin II receptor, the IC50 is 21 nM. In addition, the ED50 in test [1] amounted to 0.51 mg/kg. Further, the “Inhibition” value in test [2] is reported as 9.01.
